Results on six compounds are retold here after patent US8129355B2, “Ketone ligands for modulating the expression of exogenous genes via an ecdysone receptor complex” (priority 2002, dated 2012).

The structures appear in SMILES notation.

For the series, the target named is T1, GAL4 DBD-CfEcR(DEF)/VP16AD-MmRXRE (Choristoneura fumiferana, UniProt O77240).
T1 sequence (O77240 1-513): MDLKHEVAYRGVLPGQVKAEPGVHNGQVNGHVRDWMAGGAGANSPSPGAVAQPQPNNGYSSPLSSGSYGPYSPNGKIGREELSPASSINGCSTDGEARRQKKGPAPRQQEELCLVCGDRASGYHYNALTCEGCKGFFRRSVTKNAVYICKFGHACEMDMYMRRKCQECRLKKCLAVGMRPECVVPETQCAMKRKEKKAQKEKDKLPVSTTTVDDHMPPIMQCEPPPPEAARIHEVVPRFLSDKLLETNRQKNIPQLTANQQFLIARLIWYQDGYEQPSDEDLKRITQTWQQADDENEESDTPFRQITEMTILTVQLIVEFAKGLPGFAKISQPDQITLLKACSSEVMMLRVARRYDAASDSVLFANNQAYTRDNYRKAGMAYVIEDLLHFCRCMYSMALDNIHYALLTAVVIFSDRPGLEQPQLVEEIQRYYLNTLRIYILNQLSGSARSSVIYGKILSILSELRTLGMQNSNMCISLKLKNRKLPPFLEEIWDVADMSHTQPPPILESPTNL
Briefly: cell-based. The note with it: for fold induction at 33 µM: CHO, read-out: Fold Induction Average, 13B3 Assay (33 μM); for 13B3 Rel Max FI: maximum fold induction at any concentration relative to that of GS-E ligand. The method in brief:
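Stable CHO clone 13B3 expressing GAL4 DBD-CfEcR(DEF) and VP16AD-mouse RXR(DE) with GAL4 RE-luciferase reporter. Ligands tested at 8 concentrations, 33–0.01 μM; luciferase read 48 h after treatment. Fold induction versus DMSO; BC50 from three-parameter logistic fit.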

Take `COc1cc(C(=O)C2(NC(=O)c3cccc(OC)c3C)CCCCC2)cc(OC)c1C` [Example 66]: the EC50 (as a rule, the midpoint of the concentration-response curve) was determined as 23.8 µM; the fold induction at 33 µM stood at 357; the “13B3 Rel Max FI” value is 0.50.

For the compound `COc1cccc(C(=O)NC2(C(=O)c3cc(F)c(F)c(OC)c3)CCCC2)c1C` [Example 67], the midpoint of the response, the EC50, lay at 17.6 µM; the fold induction at 33 µM amounted to 555; the “13B3 Rel Max FI” value is recorded as 0.50.

On to `COc1cccc(C(=O)NC2(C(=O)c3cc(F)c(F)c(OC)c3)CCCCC2)c1C` [Example 68], for which a half-maximal effect (EC50) was put at 8.79 µM, the fold induction at 33 µM stood at 819 and the “13B3 Rel Max FI” value was determined as 1.00.

On to `COc1cccc(C(=O)NC2(C(=O)c3ccccc3)CCCCC2)c1C` [Example 69], for which it took 19.4 µM to reach a half-maximal effect (EC50), the fold induction at 33 µM was 164 and the “13B3 Rel Max FI” value is 0.19.

For `COc1cccc(C(=O)C(C)(C)NC(=O)c2ccccc2OC)c1` [Example 117], the “Fold Induction Average, 13B3 Assay (33 μM)” value is reported as 12.

Consider `CCCCC(=O)C1(NC(=O)c2cccc(OC)c2C)CCCCC1` [Example 120], for which the 50% effective concentration (EC50) was 14.9 µM, the fold induction at 33 µM came to 367 and the “13B3 Rel Max FI” value amounted to 0.27.
